Values of other authors as cited in patent publication EP1526849B1 (A. MENARINI INDUSTRIE FARMACEUTICHE RIUNITE S.R.L., priority 2002, dated 2004).

Settings: gel with benzofenone-3 1%; 8 hours solar light; JP60155111 example 1

CC(C(=O)O)c1cccc(C(=O)c2ccccc2)c1 (stereo not shown) [ketoprofen]
percentage of ketoprofen not broken down: 90%
